Reference: ChEMBL document CHEMBL1147070 (Drug Metab Dispos, 2007)

How the values were obtained:
Type in all cases: cell-based
[1] = target: T1, URAT1 (SLC22A12) (Homo sapiens, UniProt Q96S37); experiment: Inhibition of human URAT1-mediated urate uptake in HEK293 cells at 2 uM; conditions: HEK293 cells expressing human URAT1, probe urate
T1 sequence (Q96S37 whole entry): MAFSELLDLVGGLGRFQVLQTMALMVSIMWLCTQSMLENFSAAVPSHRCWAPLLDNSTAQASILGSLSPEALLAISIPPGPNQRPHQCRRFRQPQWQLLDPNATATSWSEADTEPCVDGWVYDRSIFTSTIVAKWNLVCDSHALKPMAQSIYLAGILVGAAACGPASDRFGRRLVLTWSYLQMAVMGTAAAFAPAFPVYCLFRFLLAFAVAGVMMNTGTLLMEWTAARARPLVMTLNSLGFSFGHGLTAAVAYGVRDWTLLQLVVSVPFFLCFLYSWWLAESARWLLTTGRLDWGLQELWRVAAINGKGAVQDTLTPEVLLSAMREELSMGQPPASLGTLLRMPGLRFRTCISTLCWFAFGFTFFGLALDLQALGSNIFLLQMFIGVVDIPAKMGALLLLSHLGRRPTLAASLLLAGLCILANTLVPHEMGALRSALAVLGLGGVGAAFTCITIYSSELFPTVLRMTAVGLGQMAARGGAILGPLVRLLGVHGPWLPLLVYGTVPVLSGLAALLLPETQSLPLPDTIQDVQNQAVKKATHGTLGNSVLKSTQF

[2] = target: T2, Solute carrier family 22 member 12 (Homo sapiens, UniProt Q96S37); experiment: Inhibition of human URAT1-mediated urate uptake in HEK293 cells
T2 sequence (Q96S37 whole entry): T1 sequence (Q96S37 whole entry)

[3] = target: T2, Solute carrier family 22 member 12; experiment: Inhibition of human URAT1-mediated urate uptake in HEK293 cells by competitive inhibition assay

| SMILES | inhibition at 2 µM [1] [%] | IC50 [2] [µM] | Ki [3] [µM] |
| --- | --- | --- | --- |
| CCc1oc2ccccc2c1C(=O)c1cc(Br)c(O)c(Br)c1 [BENZBROMARONE] | 70 |  |  |
| O=c1c(O)c(-c2ccc(O)cc2O)oc2cc(O)cc(O)c12 [MORIN] |  | 2 | 5.74 |
| CCCN(CCC)S(=O)(=O)c1ccc(C(=O)O)cc1 [PROBENECID] | 30 |  |  |
| O=C1C(CC[S+]([O-])c2ccccc2)C(=O)N(c2ccccc2)N1c1ccccc1 (stereo not given) [SULFINPYRAZONE] |  | 100 |  |
